In patent US20250241942A1, “METHODS OF SYNTHESIZING CONDUCTIVE POLYMERS IN BIOLOGICAL SYSTEMS AND METHODS OF USING CONDUCTIVE POLYMERS” (Purdue Research Foundation, priority 2024, published 2025):
Like-named read-outs stand apart in the source and are kept apart here.

How the values were obtained:
[1] = Subcutaneous administration of BDF and n-PBDF solutions in mice, observation and complete blood count; details: mouse, in vivo, sc
Text: Furthermore, the non-toxicity of the polymerization process and the resulting polymer was confirmed by subcutaneously administering BDF and n-PBDF solutions in mice. […] The investigations reported below explored the use of n-PBDF to modulate the neural activity of cortical pyramidal neurons in mice acute brain slices, showing the interaction of n-PBDF with the neurons at a cellular level, leading to a decrease in the intrinsic excitability of the neurons. […] These and other aspects of the method will be more fully appreciated from the following discussion of the investigations.

red blood cells = assay: Hemolysis assay on reaction components; assay type: cell-based; details: 0.2 mg/mL
Protocol: To evaluate the efficacy of polymerization without the need for constant stirring, a method was employed whereby the solution was placed in an incubator with a rocker at 37° C. Upon introduction of whole blood into the reaction vessel without stirring, a sluggish reaction was observed, and the vessel turned black after three hours into the reaction. […] Based on these observations from the reaction without stirring, it was deduced the lysis of the RBCs with the BDF monomer. To confirm, a hemolysis assay was used on the various reaction components and with different BDF concentrations. […] This explained the initial slow reaction and formation of n-PBDF without stirring.

zebrafish embryos = assay: BDF injection into the vasculature of zebrafish embryos, in vivo polymerization and viability
Protocol: Finally, BDF monomer with 1% w/w TPGS in the PBS media solution was injected in the vasculature of 3-day post-fertilization zebrafish embryos to validate the whole blood catalyzed in vivo polymerization of BDF to synthesize n-PBDF. The fish embryos were injected at the end of the tail (FIG. 5A) with different BDF concentrations from 1 mM to 15 mM and kept inside an incubator at 34° C. […] To prevent the misconception of pigmentation in the skin of the embryos as a darkened yolk, zebrafish embryos were treated with 1-phenyl 2-thiourea (PTU). PTU treatment removed the pigment from the skin, allowing for better visualization of the darkening of the embryo's yolk (FIG. 5C). In the case of a 1 mM BDF concentration injection, a clear yolk was observed similar to that seen in control zebrafish embryos. Significant darkening happened when the concentration was increased to 10 mM. Furthermore, 15 mM BDF concentration was injected into the zebrafish embryo, where the yolk was even darker with respect to the 10 mM BDF concentration injection. To characterize the darkened yolk, UV-Vis-NIR measurements were collected on all zebrafish embryos with different concentrations of BDF injections along with the control fish (only PBS injection). […]

A549 lung cancer cells = assay type: cell-based
Text: Because the BDF monomer can lyse the RBCs, the cytotoxicity of the BDF monomer and n-PBDF in A549 lung cancer cells was further studied. It was observed that the n-PBDF polymer is non-toxic to cancer cells, with cell viability remaining close to 100% regardless of the polymer concentration. […] Although the BDF monomer is toxic in cancer cells, it may not impede the in vivo polymerization process, as once the polymerization reaction begins, the toxicity quickly diminishes.

[2] = Solubility of BDF monomer; assay type: physicochemical
Text: Though existing methods of synthesizing n-PBDF are efficient, they are unsuitable within living systems. […] Existing synthesis methods also require high temperatures and employ dimethyl sulfoxide (DMSO) as a solvent. To overcome this limitation, methods were investigated for synthesizing n-PBDF in aqueous media using surfactants, which are also utilized in the synthesis of conductive polymer nanoparticles. […] Using TPGS as a surfactant, n-PBDF can be polymerized in aqueous media through emulsion polymerization. By incorporating an insignificant amount (5%) of DMSO and 1% w/w TPGS, this method was found suitable for use in biological systems, as discussed below.

[3] = test system: primary motor cortex (M1); parameters: species or system mice; details: mouse, in vivo

Row | Compound | complete blood count (CBC), signs of acute toxicity [1] | physical stress or discomfort [1] | hemolysis (red blood cells) | embryos alive (zebrafish embryos; after 24 h incubation, BDF 1 mM to 15 mM, 34° C.) | toxicity of BDF injection and in vivo polymerization (zebrafish embryos; zebrafish embryos) | cell viability (A549 lung cancer cells) | cell viability (A549 lung cancer cells; human, 72 h, 5 μg/mL) | cell viability (A549 lung cancer cells; human, 72 h, 0.167 mg/mL) | solubility in aqueous media ([2]; aqueous media) | solubility in organic solvents ([2]; organic solvents) | retention at the injection site [3]
1 | O=C1Cc2cc3c(cc2O1)CC(=O)O3 [BDF, 3,7-dihydrobenzo[1,2-b:4,5-b′]difuran-2,6-dione] | no signs of acute toxicity except for a minor level of hemolysis | No physical stress or discomfort was observed | approximately 40% | at least 80% | almost no toxicity | slightly improved cell viability at higher concentrations | approximately 75% | around 10% | insoluble | limited solubility | 
2 | n-doped poly(3,7-dihydrobenzo[1,2-b:4,5-b′]difuran-2,6-dione [n-PBDF] |  |  |  |  |  | ~100% |  |  |  |  | remained in the injection site for extended periods
